Data reported in publication PMC10667816, “A Cell‐Penetrant Peptide Disrupting the Transcription Factor CP2c Complexes Induces Cancer‐Specific Synthetic Lethality” (Advanced Science, 2023).
Where no end group is shown, it is not given here.

Tests used:
[1] = tested on: murine erythroleukemia (MEL) cells; assay: Erythroid differentiation of MEL cells; assay type: cell-based; settings: HMBA‐induced MEL cells, supplementation to the culture
Procedure: Information of the cell lines is listed in Table S1 (Supporting Information), including their origin and culture conditions. All cell lines were cultured at 37 °C, 5% CO2 incubator. MDA‐MB‐231 (LM1), HepG2, Hep3B, and HCT116 cell lines were authenticated with short tandem repeat markers based on ATCC information. All cell lines tested negative for mycoplasma contamination. Transient downregulation of the gene of interest was conducted by siRNA transfection using Lipofectamine 2000 (Thermo Fisher, 11668019) according to the manufacturer's instructions. Information about siRNAs is provided in Table S2 (Supporting Information). Stable cell lines were established by transfecting cells using Effectene reagent (Qiagen, 301425), followed by selection of cell clones in the presence of 1 µg mL^−1 puromycin (Sigma–Aldrich, P8833). The establishment of cell lines was confirmed by WB or RT‐qPCR. For doxycycline‐inducible gene expression regulation, cell lines were incubated in the presence of 1 µg mL^−1 doxycycline (Sigma–Aldrich, D9891) for 2–3 days. To promote sphere formation of the cell lines, each well of the tissue culture dish was coated with 10% poly 2‐hydroxyethyl methacrylate (polyHEMA). An appropriate number of cells per well were seeded in serum‐free DMEM/F12 (HyClone, SH30023.01) supplemented with B27, 20 ng mL^−1 bFGF, and 20 ng mL^−1 EGF. For erythroid terminal differentiation experiments, differentiation was assessed by hemoglobin staining using a 0.2% (w/v) tetramethylbenzidine solution (Sigma–Aldrich, T0440) in 0.6% hydrogen peroxide, 3% acetic acid for 10 min in dark condition. Benzidine‐positive or negative cell numbers were counted under the inverted microscope BX50 (Olympus) at 200 × magnification. […] After each synchronization, cells were fixed at 4‐h intervals for 24 h with ACP52C treatment, and the cell cycle was analyzed by Propidium Iodide (PI) staining or intracellular protein was analyzed by immunofluorescence. […] This development period was repeated four times for one round, after which GI50 concentrations were re‐assessed in each resistant cell line. […]

Hep3B = Hep3B CDX mouse model; assay type: in vivo
Procedure: Animal experiments were conducted in accordance with ethical guidelines, and all protocols were approved by the Institutional Animal Care and Use Committee under Hanyang University (approval numbers, 2014‐0016A, 2018‐0049A, 2018‐0207A, and 2019‐0169A), Chung‐Ang University (approval number, 2015‐00022), Chungbuk University (approval number, CBNUA‐1072‐17‐02), and Konkuk University (approval number, KU17130). To establish xenograft mice models, Hep3B, A431, U343, and PC9 cells were subcutaneously injected into the flank of Balb/c nude mice. For the MDA‐MB‐231 (LM1) cell line, it was implanted into the mammary fat pad of immunodeficient mice (NPG mice). Once tumors were successfully established, the animals were randomly divided into a control (vehicle) group and an experimental (drug) group. When the tumor volume reached 100 cubic millimeters, either saline or an appropriate concentration of drugs was administrated into mice via tail vein every 3 or 5 days for appropriate duration. Tumor volume was calculated using the formula of length × width^2)/2. To generate an orthotopic liver cancer mice model, 75 mg kg^−1 (mpk) of DEN was intraperitoneally injected weekly for 3 weeks into C57BL/6 mice, followed by 100 mpk of DEN weekly for the subsequent 3 weeks. After 37 weeks of liver cancer induction, mice received either saline or an appropriate concentration of drugs via the tail vein every 5 days for the designated duration. The in vivo administration amount was determined based on the concentration of ACP52C confirmed at the cellular level, which was 2 µM. Assuming an average mouse weight of 30 grams and considering that ≈5.8% of body weight constitutes blood volume,^[ [49] ^] it was calculated that the blood concentration of ACP52C should be ten times the GI50 concentration in cell culture conditions. […] For ACP52C derivatives, the amount was adjusted to ensure a similar molar quantity of peptide injection, taking their molecular weights into account. For instance, in the case of ACP52CGK, ≈1.67 times the quantity was used compared to ACP52C to achieve an equivalent molar quantity. At the time of sacrifice, major organs and tumors were removed and weighed, and blood was extracted. For histological analysis, major organs and tumors of mice were immediately fixed in 10% formalin neutral buffer solution, dehydrated through a graded series of ethanol treatments, treated with xylene, paraffin embedded, and cut into 4 µm sections. Hematoxylin and eosin (H&E)‐stained tissue sections were analyzed and photographed, and the representative histological images were recorded. Liver nodules in the DEN orthotopic liver cancer model were estimated by measuring the ratio of tumor areas over entire liver tissues in the tissue section using an Image J (version 1.51) software at 40× magnification. Complete blood count (CBC) analysis was conducted using a Hematology analyzer (scil Vet ABC) from the extracted blood.

CP2c = biological target: T1, CP2c (Mus musculus, UniProt Q9ERA0); assay: DNA‐IP assay of CP2c DNA binding; assay type: biochemical; settings: 0–3 µM peptide, concentration‐dependent
T1 construct: extracts from iMEL cells (day 2); endogenous in cells; host or cells: nuclear extract of HMBA-induced MEL (iMEL) cells, day 2
Procedure: DNA‐IP assay was performed essentially as described previously.^[ [14] ^] Each of the oligonucleotides was mixed and annealed in the TEN buffer. For the radio‐labeling of the DNA probe, the annealed DNA was incubated with a mixture of dATP, dGTP, dTTP, [α^32P]‐dCTP, and Klenow enzyme in reaction buffer (5 mM NaCl, 1 mM Tris HCl, 1 mM MgCl2, and 0.1 mM DTT) for 30 min at 25 °C, and stopped by incubation with EDTA (10 mM final) for 20 min at 75 °C. The radio‐labeled DNA probe was purified by applying the reaction mixture to ProbeQuant G‐50 micro columns (GE healthcare, GE28‐9034‐08). Whole extracts prepared from transfecting 293T cells or purified GST fused CP2c proteins (wildtype and point mutants) were incubated with a [α^32P]‐labeled DNA probe in binding buffer (4% glycerol, 10 mM Tris‐HCl, pH 7.4, 1 mM DTT, 1 mM EDTA, and 0.1% NP‐40) for 15 min at room temperature. Then 0–3 µM of peptides (Pep #5, Pep #8, Pep #5‐1, Pep #5‐2, and Pep #5‐2C) were added to the DNA‐protein mixture, and the mixtures were incubated for 15 min at room temperature (peptide sequences are listed in Table S3, Supporting Information). For IP, precleared extracts were incubated overnight at 4 °C with 1 µg of the following primary antibodies (CP2c, CP2b, and PIAS1). […] The radioactivity of the eluted probe was measured by scintillation counting.

[2] = intravenous injection at three‐day intervals, Sorafenib orally once daily as positive control

T1 sequence (Q9ERA0 whole entry): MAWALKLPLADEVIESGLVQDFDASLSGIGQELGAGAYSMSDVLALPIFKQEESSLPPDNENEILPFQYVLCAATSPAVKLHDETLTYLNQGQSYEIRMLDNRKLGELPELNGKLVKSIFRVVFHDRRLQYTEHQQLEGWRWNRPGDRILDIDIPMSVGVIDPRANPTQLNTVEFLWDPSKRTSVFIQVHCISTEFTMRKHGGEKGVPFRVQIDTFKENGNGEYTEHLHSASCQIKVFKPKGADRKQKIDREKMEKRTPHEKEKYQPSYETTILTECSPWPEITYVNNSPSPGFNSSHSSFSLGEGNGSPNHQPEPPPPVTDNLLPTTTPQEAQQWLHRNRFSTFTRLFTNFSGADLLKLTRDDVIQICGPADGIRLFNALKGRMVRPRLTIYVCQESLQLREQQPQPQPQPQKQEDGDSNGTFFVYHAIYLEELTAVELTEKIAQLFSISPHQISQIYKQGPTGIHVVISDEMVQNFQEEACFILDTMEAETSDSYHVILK

Substance | anti‐tumor activity (Hep3B; [2]) | other results
Ac-HERRESNYPQRPCRGDKGPDC-NH2 [Pep #5C] |  | inhibition of erythroid differentiation [1]: efficiently inhibited erythroid differentiation
Ac-K(E-pal)K-GGNYPQRPCRGDKGPDC-NH2 [ACP52CG, palmitic acid linked to lysine at the N‐terminus of ACP52C] | decrease in anti‐tumor activity, resembling Sorafenib | 
Ac-K(EGFLG-pal)K-GGNYPQRPCRGDKGPDC-NH2 [ACP52CK, ACP52C with enzyme‐cleavable linker GFLG to palmitic acid] | activity similar to that of Sorafenib | 
Ac-NYPQRPGG-K(E-pal)-GGCRGDKGPDC-NH2 [ACP52GK, E‐pal attached via αE COO‐ to lysine between ACP52 and iRGD] | lower anti‐tumor activity compared to ACP52C | 
DHA-GGNYPQRPCRGDKGPDC-NH2 [DHA‐ACP52C, DHA, an unsaturated fatty acid, conjugated at the N‐terminus of ACP52C] | effectively demonstrated anti‐tumor activity | anti‐tumor activity (Hep3B; administered at five‐day intervals): noticeably higher activity than ACP52C
HERRES [Pep #5‐1] |  | inhibition of DNA binding activity of CP2c (CP2c): no activity
